Source: patent US20050106213A1, “Resorption-controlled bone implants” (priority 2001, published 2005)

Columns and labels:
osteoclasts [1] = assay: CAP cement rods or pastes doped with Bafilomycin A1 implanted in rat femur defects, histology; type: in vivo
Description: The calcium phosphate precursor powder consisted of an equimolar mixture of DCPA and TTCP sterilized by gamma irradiation (20 kGy). Deionized double distilled water was obtained from a Millipore Milli-RO 10 Plus and Mill-Q UF Plus systems (Bedford, Mass., USA) operated at 18 MΩ resistance. The liquid phase was a neutral sodium hydrogen phosphate solution at pH 7.4, which was sterilized by filtration through 0.22 μm filters (Millipore Corp., Bedford, Mass., USA).
(§1) Bafilomycin A1 was first dissolved in DMSO solution (other solutions that can be used are methanol and ethanol), and then dispersed in a neutral phosphate solution (pH 7.4) prepared from Na2HPO4 and NaH2PO4.
After Bafilomycin A1 was dispersed in the biphasic liquid phase, the liquid phase was added to one of the solid components of the CAP, dicalcium phosphate anhydrous (DCPA). The DCPA was dissolved in the liquid phase and left at room temperature for 2 min with continuous mixing.
Next, tetracalcium phosphate (TTCP) was gradually added to the first dissolved CAP component to produce a paste. The powder to liquid ratio (P/L) of the final CAP was 2.0 (wt/wt).
The pastes were either implanted or used for the preparation of rods. Cement rods (1.9 mm diameter×2.3 mm height) were shaped by allowing aliquots of packed CPC pastes to set in custom made Teflon® formers for 24 h at 37C and 100% humidity and subsequently for 48 h at room temperature.
Young male Wistar rats with an average body weight of 125-150 g were purchased from Charles River (QC, Canada), housed in light- and temperature-controlled rooms, and fed a standard diet. The maintenance and use of animals were in accordance with the Canadian Council of Animal Care Guidelines.
Bone defects were drilled in the mid-diaphysis of the femur. The holes were made using a low speed dental drill (2.3 mm in diameter) with copious saline irrigation. Pre-hardened CPC rods were placed into the holes using gentle pressure. Every rat received two implants, a control rod (paste) in one femur and a rod (paste) containing Bafilomycin A1 in another femur. The animals were observed daily throughout the implantation period.
After desired time in vivo, the animals were sacrificed, and the femurs were removed. The femurs were then exposed to a fixative solution for 48 h, decalcified in a 1:1 mixture of 45% formic acid and 20% sodium citrate, dehydrated and embedded in low-melting-point paraffin. Serial sections (6 μm thick) perpendicular to the long axis of the implant were obtained using a hard tissue Spencer 820 microtome. Sample sections were stained with hematoxylin-eosin (H&E) and Mason's trichrome stains. Representative sections were also tested for the presence of tartrate resistant acid phosphatase (TRAP) enzyme, characteristic of osteoclasts, to determine the identity of the cells at the material/bone interface.

[2] = Solubility of Bafilomycin A1 in solvent for liquid phase preparation; type: physicochemical; conditions: at 2.0×10^−3 M
Description: as §1

osteoclasts [3] = assay: Bafilomycin-doped CAP implant rods in young and non-ovx aged Brown Norway rats (comparison groups), histology; parameters: species or system rat; conditions: young control group and non-ovx aged group; observed even at 4 months in vivo
Description: Ten-month old ovariectomized (ovx) virgin Brown Norway rats with were purchased from the National Institute on Aging (Bethesda, Md., USA), housed individually in light- and temperature-controlled rooms, and fed a restricted diet (6 pellets/day). These animals were kept for additional four months following the ovariectomy. Non-ovx virgin Brown Norway rats of the same age as the experimental rats at the time of implantation (fourteen months) were used as a control group for the ovx animals. Young virgin female Brown Norway rats (three months old) were used as another comparison group to assess the implant integration and resorption. The maintenance and use of animals were in accordance with the Canadian Council of Animal Care Guidelines.
Production of the CAP implant doped with bafilomycin was performed as described above, i.e., resorbable CAP based on the TTCP and DCPA chemistry. Bafilomycin in concentration of 75-100 μg per 250 μL of liquid neutral phosphate phase per 500 mg of CAP was used.
The implants were allowed to set to form pre-hardened implant rods. The implants were retrieved at 10 days, 1 month, 2 months, and 4 months post-surgery.

osteoclasts [4] = assay: Bafilomycin-doped CAP implant rods in ovariectomized aged rats (model of osteoporosis), histology; type: in vivo, rat; conditions: ovx aged Brown Norway rats, 75-100 μg per 500 mg CAP
Experimental: Performance of the bafilomycin-doped implant was also assessed in a model of osteoporosis which utilizes ovarectomized aged rats. Successful integration of osseous implants with host bone tissue can be adversely affected by pathological bone conditions such as osteoporosis, which result in osteopenia due to disturbance of the balance between bone resorption and bone formation processes. Therefore, systemic bone loss due to estrogen deficiency may also affect bone growth and maintenance around the implants. Although current attention has been focused in the art on systemic fracture prevention and development of new therapies aimed at conserving bone mass, little emphasis has been given to increasing osteointegration of implants in osteoporotic defect site.
The effects of ovariectomy on bone tissue formation and resorption of proton pump inhibitor (Bafilomycin A1)—modified resorbable CAP cement implants in comparison to the controls were studied.
Ten-month old ovariectomized (ovx) virgin Brown Norway rats with were purchased from the National Institute on Aging (Bethesda, Md., USA), housed individually in light- and temperature-controlled rooms, and fed a restricted diet (6 pellets/day). These animals were kept for additional four months following the ovariectomy. […]

osteoclast proton pump = assay: Calcibon cement rods doped with Panto IV implanted in femur of young Wistar rats, histology; type: in vivo, rat; conditions: 4 mg Panto IV per mL neutral phosphate solution per 500 mg Calcibon, 10 days
Experimental: Experiments with a commercially available proton pump inhibitor, sodium pantoprazole sold as Panto IV®, were performed in healthy young Wistar rats.
Although Panto IV is highly specific for the proton pumps of the parietal cells, it was hypothesized that it may non-specifically affect other proton pumps, including the osteoclast proton pump. A commercially available calcium phosphate material, Calcibon, was also used which is less resorbable than the previously used CAP to determine whether the strategy for stimulating local bone mass can be used with other materials.
The CAP material used was Calcibon provided by the Merck Biomaterials/Biomet company. The concentration used was 4 mg Panto IV per/mL of neutral phosphate solution per 500 mg of CAP powder used to prepare the cement. The cement doped with the PPI was then allowed to set, as described previously. The pre-set rods were implanted in young Wistar rats according to the same procedure as described previously.

| Compound | control of CAP cement resorption (dose range study outcome) (osteoclasts [1]; 1.61×10^−4 M Bafilomycin A1 in liquid phase (DMSO solvent), rat femur implant) | amount of new bone surrounding the implant versus control cement (osteoclasts [1]; 1.61×10^−4 M, all specimens studied, young male Wistar rats) | resorption rate of CAP cement in comparison to controls (osteoclasts [1]; 1.61×10^−4 M, histology, young male Wistar rats) | formation of osteoclastic cutting cones into the material (osteoclasts [1]; 1.61×10^−4 M, tissue/material interface) | density of new bone surrounding the cement versus control (osteoclasts [1]; 1.61×10^−4 M, young male Wistar rats) | bone healing around the implant (osteoclasts [1]; highest concentration 2.0×10^−3 M Bafilomycin A1 in liquid phase (methanol solvent), rat femur implant) | response of CAP implanted as paste (resorption, new bone) (osteoclasts [1]; injectable paste, 14 days after implantation, rat femur) | histology / resorption of cement versus control (osteoclasts [1]; lowest concentration 1.61×10^−5 M Bafilomycin A1 in liquid phase (DMSO solvent), rat femur implant) | solubility in DMSO [2] | bone formation around the material doped with PPI (trend) (osteoclasts [3]) | resorption of the material doped with PPI (trend) (osteoclasts [3]) | resorption of implant in comparison to control material (osteoclasts [4]; throughout 4-month in vivo period) | local bone mass around implant (osteoclasts [4]; up to 4 months) | reparative bone mass surrounding the implant versus control (osteoclast proton pump) |
| --- | --- | --- | --- | --- | --- | --- | --- | --- | --- | --- | --- | --- | --- | --- |
| CO/C1=C\C(C)=C\[C@@H](C)[C@@H](O)[C@@H](C)C/C(C)=C/C=C/[C@H](OC)[C@@H]([C@@H](C)[C@@H](O)[C@H](C)[C@@]2(O)C[C@@H](O)[C@H](C)[C@@H](C(C)C)O2)OC1=O [Bafilomycin A1] | found to work very well | consistently surrounded by more bone than the control cements | decreased the resorption rate | did not form “cutting cones” | appeared to be denser than the bone around the controls | the bone would not heal around the implant | showed the same response as that observed for the pre-set cements | did not differ in histology | solubility of Bafilomycin A1 in DMSO was exceeded | increased bone formation | reduced resorption | reduction of the resorption | increased local bone mass |  |
| COc1ccnc(Cc2nc3cc(OC(F)F)ccc3[nH]2)c1OC [Panto IV, 5-difluoromethoxy-2-[(3,4-dimethoxy-2-pyridinyl)methyl]-1H-benzimidazole] |  |  |  |  |  |  |  |  |  |  |  |  |  | surrounded by higher reparative bone mass than the control |
